Measured values: US20240255515A1, “G4-SPECIFIC PEPTIDES AND METHODS OF IDENTIFYING THE SAME” (CITY UNIVERSITY OF HONG KONG, priority 2023, published 2024)
Like-named read-outs stand apart in the source and are kept apart here.

Columns and labels:
[1] = tested on: hTERC rG4 WT construct in HeLa cells; test: Dual-luciferase reporter gene assay, hTERC rG4 WT construct; type: cell-based, human; conditions: peptide 0, 100, 200 nM, 48 hours
Protocol: (§1) Wild-type or mutant hTERC rG4 construct was inserted into the HSV-TK promoter at the SacII restriction enzyme site of firefly/renilla dual luciferase reporter vector, psiCHECK-2. Then, wild-type or mutant reporter plasmid was transfected into Hela cells together with peptides (0, 100, 200 nM) using nucleofector. Each well of the 96-well black-wall optical plate was transfected with 30 ng plasmids. The luciferase reporter gene assays were performed after 48 hours of incubation using the dual-luciferase reporter assay kit. The microplate reader was used to measure luciferase activities with renilla luciferase serving as an internal control. The ratio of firefly to renilla was calculated to analyze the data. Three replicates were performed for each measurement, and the error bar was plotted based on the standard deviation. The P-value was calculated using two-tailed unpaired Student's t-tests to evaluate the significance of the samples.
After confirming that the rG4-targeting peptides can interact with rG4 structures in live cells, their effect on modulating rG4-mediated gene expression was examined in the example. Dual luciferase reporter gene assay was conducted in HeLa cells, in which hTERC rG4 WT motif (SEQ ID NO: 12) or hTERC rG4 MUT motif (SEQ ID NO: 13) was inserted in the 5′ untranslated region (5′ UTR) of the renilla luciferase gene region separately, and the firefly luciferase gene was used as a normalized gene (FIG. 1).

hTERC rG4 [2] = test: Ligand-enhanced fluorescence assay; set-up: species or system human; conditions: 100 nM hTERC rG4
Protocol: HTERC rG4 (100 nM) in Tris-HCl buffer (25 mM Tris-HCl, pH 7.5, 150 mM KCl, and 1 mM MgCl2) was heated at 95° C. for 3 minutes and cooled down at 25° C. for 10 minutes. 10 μL of the peptide and rG4 mixture were incubated for 30 minutes at room temperature. Fluorescence spectroscopy was performed using a microplate reader in 384 well plate. The samples were excited at 394 nm and the emission spectra were detected at 610 nm. The plot was carried out by software.

[3] = tested on: hTERC rG4 MUT construct in HeLa cells; test: Dual-luciferase reporter gene assay, hTERC rG4 MUT construct; type: cell-based, human; conditions: peptide 0, 100, 200 nM, 48 hours
Protocol: as §1
After confirming that the rG4-targeting peptides can interact with rG4 structures in live cells, their effect on modulating rG4-mediated gene expression was examined in the example. […]

hTERC rG4 [4] = test: Microscale thermophoresis (MST) binding assay; set-up: species or system human; conditions: 50 nM FAM-labelled RNA, 150 mM KCl
Protocol: (§2) The RNA was subjected to heat treatment at 75° C. for 5 minutes followed by cooling down to room temperature for 10 minutes for renaturation purposes. For binding affinity and selectivity test, reaction mixtures containing 50 nM FAM-labelled RNA, 150 mM KCl, 1 mM MgCl2, 25 mM Tris-HCl (pH 7.5) and varying concentrations of peptide were prepared and incubated at 37° C. for 30 minutes. The samples were then loaded into MST capillary tubes, and the measurements were taken at 25° C. using blue light mode and the binding affinity mode. The data obtained from these measurements were analyzed using MST nano temper analysis (nta) analysis software. The curve fitting and dissociation constant (Kd) determination were carried out by software using the one site-specific binding model.

[5] = tested on: 5' FAM, 3' TAMRA labelled hTERC rG4; test: FRET melting assay; type: binding, human; conditions: increasing peptide concentration, 0-2 μM; 0.2 μM rG4
Protocol: FRET-melting assay was performed with 5′ FAM, 3′ TAMRA labelled hTERC rG4. The oligonucleotides were prepared at 0.2 μM, and the peptides were prepared at 0, 0.2, 0.4, 1 or 2 μM final concentration. The samples were excited at 492 nm and the emission spectra were detected at 516 nm in a buffer containing 10 mM lithium cacodylate and 1 mM KCl. The rG4 was heated at 95° C. for 5 minutes and cooled down in room temperature to refold for 10 minutes before adding the peptides. The signal was monitored by real-time PCR detection system with a procedure of 30 minutes at 25° C., then an increase of 0.5° C. every minute until 95° C. Each experimental condition was tested in three duplicates in a volume of 25 μL for each sample. The data were blanked, averaged and smoothed over 2° C. The plot was carried out by software.

[6] = tested on: hTERC rG4 MUT in HeLa cells; test: Cell imaging, co-transfection with hTERC rG4 MUT; type: cell-based, human; conditions: 5 hours post-transfection, data not shown
Protocol: (§3) HeLa cells were seeded on a 3.5 cm confocal dish 1 day before transfection. FAM-labelled hTERC rG4 was heated to 75° C. for 5 minutes, annealed at 25° C., and then co-transfected with TAMRA-labelled peptide using LIPOFECTAMINE® 2000. Five hours post-transfection, the cells were stained with 50 nM deep red-fluorescent dye (labeling and tracking acidic organelles in live cells) for 30 minutes and 5 μg/mL Hoechst dye (staining nucleic acid) for 15 minutes. The images were monitored using a laser confocal scanning microscope. Fluorescence statistics of cells were analyzed using software.

[7] = tested on: hTERC rG4 WT in HeLa cells; test: Cell imaging, co-transfection with hTERC rG4 WT; type: cell-based, human; conditions: 5 hours post-transfection, data not shown
Protocol: as §3

[8] = tested on: rG4s, dG4s (c-MYC, c-kit1, HRAS-1, hTelo) and non-G4 targets (scramble G-rich sequence, DNA hairpin, RNA hairpin); test: MST binding selectivity test with different rG4s, dG4s and non-G4 targets; conditions: data not shown
Protocol: as §2

hTERC rG4 wild-type (WT) = test: Filter binding assay, hTERC rG4 wild-type; set-up: species or system human; conditions: data not shown
Protocol: (§4) In the binding affinity and selectivity tests, reaction mixtures containing 5 nM biotin-labeled RNA, 25 mM Tris-HCl (pH 7.5), 150 mM KCl, 1 mM MgCl2 and varying concentrations of peptides were prepared in 50 μL and incubated at 37° C. for 30 minutes before loaded onto an apparatus containing a nitrocellulose membrane (top) and nylon membrane (bottom). The nylon membrane was rinsed with 0.5× Tris-borate-EDTA (TBE) buffer for 5 minutes, and the nitrocellulose membrane was rinsed with 0.5 M KOH for 15 minutes at 4° C. and then rinsed with 0.5×TBE buffer for one time prior to use. The membranes were washed with binding buffer for three times before and after applying the sample to the apparatus. The crosslinking step was carried out by exposing the membranes to UV irradiation at 254 nm, 120,000 microjoules/cm^2 for 5 minutes. The results were detected using a chemiluminescent nucleic acid detection module kit, and the scanned by an imaging system.

hTERC rG4 mutant (MUT) = test: Filter binding assay, hTERC rG4 mutant; set-up: species or system human; conditions: data not shown
Protocol: as §4

Substance: RHAU53: positive control peptide reported to interact with rG4s; sequence SMHPGHLKGREIGMWYAKKQGQKNKEAERQERAVVHMDERREEQIVQLLNSVQA K (SEQ ID NO: 4) (SMHPGHLKGREIGMWYAKKQGQKNKEAERQERAVVHMDERREEQIVQLLNSVQAK)
- normalized luciferase activity, WT construct [1]: effects of both tandem and cyclic pep11 were comparable to that of RHAU53
- fluorescence signal / conformational change of G4 upon peptide binding (hTERC rG4 [2]): exhibited a similar result

Substance: pep71: negative control peptide with amino acid sequence AHPLTKPPKYHH (SEQ ID NO: 5) [reference compound]
- normalized luciferase activity, MUT construct [3]: did not impact
- normalized luciferase activity, WT construct [1]: did not impact

Substance: two pep11 domains linked by (GTGSGA)3: TKRKHPHRRKYRGTGSGAGTGSGAGTGSGATKRKHPHRRKYR (SEQ ID NO: 3) [tandem pep11]
- Kd (hTERC rG4 [4]; read-out: Kd, binding affinity to hTERC rG4): 449 ± 62 nM
- melting temperature of hTERC rG4 [5]: Higher melting temperatures
- normalized luciferase activity, WT construct [1]: the inhibition extended with increasing concentration
- foci in cells transfected with hTERC rG4 MUT [6]: few foci were observed
- colocalization of TAMRA-labelled peptide with hTERC rG4 WT foci in live cells [7]: clear colocalization of TAMRA signals with the fluorescent foci
- binding selectivity among rG4s, dG4s and non-G4s [8]: bound to other rG4s but not to non-G4s and weakly to dG4s
- binding to hTERC rG4 WT (hTERC rG4 wild-type (WT)): bound to hTERC rG4 WT
- binding to hTERC rG4 MUT (hTERC rG4 mutant (MUT)): not MUT

Substance: de novo G4-binding peptide with amino acid sequence TKRKHPHRRKYR (SEQ ID NO: 1) [pep11]
- Kd (hTERC rG4 [4]; read-out: Kd, binding to hTERC rG4): 1370 ± 220 nM
- melting temperature of hTERC rG4 [5]: Higher melting temperatures
- binding selectivity among rG4s, dG4s and non-G4s [8]: only rG4s exhibited observable binding
